Measurements published in PubChem BioAssay AID328 (DTP/NCI, 2004).
Toxic doses and inconclusive results are not listed. How the source made its calls: active means survival T/C of 150% or more; inactive means T/C below 125% in these data.

Tested on: BDF1 mice, P388 leukemia ip, median survival T/C
Assay: NCI In Vivo Anticancer Drug Screen. Data for tumor model P388 Leukemia (intraperitoneal) in B6D2F1 (BDF1) mice
Settings: endpoint: median survival time, higher = longer survival
How it was run: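 Survival ratio, drug arm over vehicle arm, in mice with a transplanted tumour.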

Measured: T/C

CC(C)=CCC(OC(=O)C=C(C)C)C1=CC(=O)c2c(O)ccc(O)c2C1=O (stereo not given)
inactive: dose: 1.25 mg/kg/injection, schedule: Q01DX009 (ip), vehicle: carboxymethylcellulose (CMC) 100 % of control | dose: 2.5 mg/kg/injection, schedule: Q01DX009 (ip), vehicle: carboxymethylcellulose (CMC) 95 % of control | dose: 3.12 mg/kg/injection, schedule: Q01DX009 (ip), vehicle: water 118 % of control | dose: 6.25 mg/kg/injection, schedule: Q01DX009 (ip), vehicle: water 113 % of control | dose: 6.25 mg/kg/injection, schedule: Q04DX003 (ip), vehicle: water 122 % of control | dose: 12.5 mg/kg/injection, schedule: Q04DX003 (ip), vehicle: water 122 % of control

S=C1SC2(CCCCCC2)NC2=C1CCCCC2
inactive: dose: 100.0 mg/kg/injection, schedule: Q01DX009 (ip), vehicle: Klucel (hydroxypropylcellulose) (HPC) 106 % of control | dose: 200.0 mg/kg/injection, schedule: Q01DX009 (ip), vehicle: Klucel (hydroxypropylcellulose) (HPC) 103 % of control | dose: 400.0 mg/kg/injection, schedule: Q01DX009 (ip), vehicle: Klucel (hydroxypropylcellulose) (HPC) 105 % of control

C=CN1C(=O)NC(C)(CC(C)C)C1=O (stereo not given)
inactive: dose: 100.0 mg/kg/injection, schedule: Q01DX009 (ip), vehicle: saline with Tween-80 93 % of control | dose: 200.0 mg/kg/injection, schedule: Q01DX009 (ip), vehicle: saline with Tween-80 104 % of control | dose: 400.0 mg/kg/injection, schedule: Q01DX009 (ip), vehicle: saline with Tween-80 104 % of control

COc1ccc2c(c1)N(C(=O)N(CCOC(=O)Nc1ccccc1)CCOC(=O)Nc1ccccc1)c1ccccc1S2
inactive: dose: 25.0 mg/kg/injection, schedule: Q01DX009 (ip), vehicle: saline with Tween-80 95 % of control | dose: 50.0 mg/kg/injection, schedule: Q01DX009 (ip), vehicle: saline with Tween-80 91 % of control

CC(=O)Nc1ccc(S(=O)(=O)N2CC2)cc1
inactive: dose: 25.0 mg/kg/injection, schedule: Q01DX005 (ip), vehicle: saline 98 % of control | dose: 50.0 mg/kg/injection, schedule: Q01DX005 (ip), vehicle: saline 111 % of control | dose: 100.0 mg/kg/injection, schedule: Q01DX005 (ip), vehicle: saline 98 % of control | dose: 200.0 mg/kg/injection, schedule: Q01DX005 (ip), vehicle: saline 111 % of control

C[N+](C)(C)N=C1CCC2(CC1)c1ccccc1-c1ccccc12
inactive: dose: 5.15 mg/kg/injection, schedule: Q04DX003 (ip), vehicle: saline 95 % of control | dose: 6.25 mg/kg/injection, schedule: Q01DX009 (ip), vehicle: saline 95 % of control | dose: 10.31 mg/kg/injection, schedule: Q04DX003 (ip), vehicle: saline 100 % of control | dose: 12.5 mg/kg/injection, schedule: Q01DX009 (ip), vehicle: saline 91 % of control | dose: 20.62 mg/kg/injection, schedule: Q04DX003 (ip), vehicle: saline 115 % of control | dose: 25.0 mg/kg/injection, schedule: Q01DX009 (ip), vehicle: saline 100 % of control | dose: 35.0 mg/kg/injection, schedule: Q01DX009 (ip), vehicle: saline 113 % of control | dose: 41.25 mg/kg/injection, schedule: Q04DX003 (ip), vehicle: saline 104 % of control | dose: 55.0 mg/kg/injection, schedule: Q01DX009 (ip), vehicle: saline 90 % of control

C=CC(=O)Oc1ccc(Cl)cc1
inactive: dose: 12.5 mg/kg/injection, schedule: Q04DX003 (ip), vehicle: saline with Tween-80 100 % of control | dose: 25.0 mg/kg/injection, schedule: Q04DX003 (ip), vehicle: saline with Tween-80 104 % of control | dose: 50.0 mg/kg/injection, schedule: Q04DX003 (ip), vehicle: saline with Tween-80 118 % of control
